From ChEMBL document CHEMBL1201862, “PubChem BioAssay data set” (2004)
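Protocol summary: plate cells (96-well), add compound at 5 concentrations, incubate 48 h, interpolate endpoints linearly. GI50 marks 50% less growth.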 Activity calls are given as the source filed them. Rule as the data show it: active = GI50 up to about 1.1 µM and inactive = higher.

How the values were obtained:
Assay in all cases: NCI-60 cell line screen, 48 h
786-0 = tested on: 786-0
A498 = tested on: A498
A549 = tested on: A549
ACHN = tested on: ACHN
BT-549 = tested on: BT-549
CAKI-1 = tested on: CAKI-1
CCRF-CEM = tested on: CCRF-CEM
COLO 205 = tested on: COLO 205
DU-145 = tested on: DU-145
EKVX = tested on: EKVX
HCC 2998 = tested on: HCC 2998
HCT-116 = tested on: HCT-116
HCT-15 = tested on: HCT-15
HL-60 = tested on: HL-60
HOP-62 = tested on: HOP-62
HOP-92 = tested on: HOP-92
HT-29 = tested on: HT-29
Hs-578T = tested on: Hs-578T
IGROV-1 = tested on: IGROV-1
K562 = tested on: K562
KM12 = tested on: KM12
LOX IMVI = tested on: LOX IMVI
M14 = tested on: M14
MCF7 = tested on: MCF7
MDA-MB-231 = tested on: MDA-MB-231
MDA-MB-435 = tested on: MDA-MB-435
MDA-N = tested on: MDA-N
MOLT-4 = tested on: MOLT-4
Malme-3M = tested on: Malme-3M
NCI-H226 = tested on: NCI-H226
NCI-H23 = tested on: NCI-H23
NCI-H460 = tested on: NCI-H460
NCI-H522 = tested on: NCI-H522
NCI/ADR-RES = tested on: NCI/ADR-RES
OVCAR-3 = tested on: OVCAR-3
OVCAR-4 = tested on: OVCAR-4
OVCAR-5 = tested on: OVCAR-5
OVCAR-8 = tested on: OVCAR-8
PC-3 = tested on: PC-3
RPMI-8226 = tested on: RPMI-8226
RXF 393 = tested on: RXF 393
SF-268 = tested on: SF-268
SF-295 = tested on: SF-295
SF-539 = tested on: SF-539
SK-MEL-28 = tested on: SK-MEL-28
SK-MEL-2 = tested on: SK-MEL-2
SK-MEL-5 = tested on: SK-MEL-5
SK-OV-3 = tested on: SK-OV-3
SN12C = tested on: SN12C
SNB-19 = tested on: SNB-19
SNB-75 = tested on: SNB-75
SR = tested on: SR
SW-620 = tested on: SW-620
T47D = tested on: T47D
TK-10 = tested on: TK-10
U-251 = tested on: U-251
UACC-257 = tested on: UACC-257
UACC-62 = tested on: UACC-62
UO-31 = tested on: UO-31

SMILES: CC1(C)CC[C@]2(C(=O)O)CC[C@]3(C)C(=CC[C@@H]4[C@@]5(C)C[C@H](O)[C@H](O)[C@@](C)(C(=O)O)[C@@H]5CC[C@]43C)[C@@H]2C1
- GI50 (786-0): > 100 µM (inactive)
- GI50 (A498): > 100 µM (inactive)
- GI50 (A549): > 100 µM (inactive)
- GI50 (ACHN): > 100 µM (inactive)
- GI50 (BT-549): > 100 µM (inactive)
- GI50 (CAKI-1): > 100 µM (inactive)
- GI50 (CCRF-CEM): > 100 µM (inactive)
- GI50 (COLO 205): > 100 µM (inactive)
- GI50 (DU-145): > 100 µM (inactive)
- GI50 (EKVX): > 100 µM (inactive)
- GI50 (HCC 2998): > 100 µM (inactive)
- GI50 (HCT-116): > 100 µM (inactive)
- GI50 (HCT-15): > 100 µM
- GI50 (HL-60): > 31.6 µM (inactive)
- GI50 (HOP-62): > 100 µM (inactive)
- GI50 (HOP-92): > 100 µM (inactive)
- GI50 (HT-29): > 100 µM (inactive)
- GI50 (Hs-578T): > 100 µM (inactive)
- GI50 (IGROV-1): > 89.3 µM (inactive)
- GI50 (K562): 78.3 µM (inactive)
- GI50 (KM12): > 79.1 µM (inactive)
- GI50 (LOX IMVI): > 100 µM (inactive)
- GI50 (M14): > 100 µM (inactive)
- GI50 (MCF7): > 100 µM (inactive)
- GI50 (MDA-MB-231): > 100 µM (inactive)
- GI50 (MDA-MB-435): > 100 µM (inactive)
- GI50 (MDA-N): > 100 µM (inactive)
- GI50 (MOLT-4): > 100 µM (inactive)
- GI50 (Malme-3M): > 100 µM (inactive)
- GI50 (NCI-H226): > 90.8 µM (inactive)
- GI50 (NCI-H23): > 100 µM (inactive)
- GI50 (NCI-H460): > 100 µM (inactive)
- GI50 (NCI-H522): > 100 µM (inactive)
- GI50 (NCI/ADR-RES): > 100 µM (inactive)
- GI50 (OVCAR-3): > 100 µM (inactive)
- GI50 (OVCAR-4): > 82.2 µM (inactive)
- GI50 (OVCAR-5): > 100 µM (inactive)
- GI50 (OVCAR-8): > 100 µM (inactive)
- GI50 (PC-3): > 100 µM (inactive)
- GI50 (RPMI-8226): > 86.9 µM (inactive)
- GI50 (RXF 393): > 100 µM (inactive)
- GI50 (SF-268): > 100 µM (inactive)
- GI50 (SF-295): > 100 µM (inactive)
- GI50 (SF-539): > 100 µM (inactive)
- GI50 (SK-MEL-28): > 100 µM (inactive)
- GI50 (SK-MEL-2): > 100 µM (inactive)
- GI50 (SK-MEL-5): > 100 µM (inactive)
- GI50 (SK-OV-3): > 100 µM (inactive)
- GI50 (SN12C): > 100 µM (inactive)
- GI50 (SNB-19): > 100 µM (inactive)
- GI50 (SNB-75): > 100 µM (inactive)
- GI50 (SR): > 100 µM (inactive)
- GI50 (SW-620): > 100 µM (inactive)
- GI50 (T47D): > 100 µM (inactive)
- GI50 (TK-10): > 100 µM (inactive)
- GI50 (U-251): > 100 µM (inactive)
- GI50 (UACC-257): > 100 µM (inactive)
- GI50 (UACC-62): > 54.6 µM (inactive)
- GI50 (UO-31): > 100 µM (inactive)

SMILES: CCC(C#N)(c1ccccc1)N(CCc1ccccc1)C(=O)c1ccccc1 (configuration not stated)
- GI50 (786-0): 13.3 µM (inactive)
- GI50 (A498): 24.2 µM (inactive)
- GI50 (A549): 77.1 µM (inactive)
- GI50 (ACHN): 51.2 µM (inactive)
- GI50 (BT-549): 70.8 µM (inactive)
- GI50 (CAKI-1): > 100 µM (inactive)
- GI50 (CCRF-CEM): > 100 µM (inactive)
- GI50 (COLO 205): > 100 µM (inactive)
- GI50 (DU-145): > 100 µM (inactive)
- GI50 (EKVX): > 100 µM (inactive)
- GI50 (HCC 2998): 54.7 µM (inactive)
- GI50 (HCT-116): 24.8 µM (inactive)
- GI50 (HCT-15): > 100 µM
- GI50 (HL-60): > 100 µM (inactive)
- GI50 (HOP-62): 15.9 µM (inactive)
- GI50 (HOP-92): 12.6 µM (inactive)
- GI50 (HT-29): > 100 µM (inactive)
- GI50 (Hs-578T): 18.2 µM (inactive)
- GI50 (IGROV-1): 46.9 µM (inactive)
- GI50 (K562): > 100 µM (inactive)
- GI50 (KM12): > 100 µM (inactive)
- GI50 (LOX IMVI): > 100 µM (inactive)
- GI50 (M14): > 100 µM (inactive)
- GI50 (MCF7): > 100 µM (inactive)
- GI50 (MDA-MB-231): 13.5 µM (inactive)
- GI50 (MDA-MB-435): > 100 µM (inactive)
- GI50 (MDA-N): > 100 µM (inactive)
- GI50 (MOLT-4): > 100 µM (inactive)
- GI50 (Malme-3M): > 100 µM (inactive)
- GI50 (NCI-H226): 18.5 µM (inactive)
- GI50 (NCI-H23): 76.9 µM (inactive)
- GI50 (NCI-H522): > 100 µM (inactive)
- GI50 (NCI/ADR-RES): 54.3 µM (inactive)
- GI50 (OVCAR-3): 85.9 µM (inactive)
- GI50 (OVCAR-4): 10.8 µM (inactive)
- GI50 (OVCAR-5): > 100 µM (inactive)
- GI50 (OVCAR-8): 20 µM (inactive)
- GI50 (PC-3): > 100 µM (inactive)
- GI50 (RPMI-8226): > 100 µM (inactive)
- GI50 (RXF 393): 24.5 µM (inactive)
- GI50 (SF-268): 88.5 µM (inactive)
- GI50 (SF-295): 29.6 µM (inactive)
- GI50 (SF-539): 15.6 µM (inactive)
- GI50 (SK-MEL-28): 42.6 µM (inactive)
- GI50 (SK-MEL-2): 67 µM (inactive)
- GI50 (SK-MEL-5): > 100 µM (inactive)
- GI50 (SK-OV-3): 32.8 µM (inactive)
- GI50 (SN12C): 85.5 µM (inactive)
- GI50 (SNB-19): 28 µM (inactive)
- GI50 (SNB-75): 29.5 µM (inactive)
- GI50 (SR): > 100 µM (inactive)
- GI50 (SW-620): > 100 µM (inactive)
- GI50 (T47D): > 100 µM (inactive)
- GI50 (TK-10): 62.1 µM (inactive)
- GI50 (U-251): 30.3 µM (inactive)
- GI50 (UACC-257): > 100 µM (inactive)
- GI50 (UACC-62): 49.5 µM (inactive)
- GI50 (UO-31): 64.3 µM (inactive)
